Source: article PMC7002685, “Inhibition of vascular calcification by inositol phosphates derivatized with ethylene glycol oligomers” (Nature Communications, 2020)
Where “and” joins values, the source holds several entries; their conditions need not be identical. Equal values may be shown once. Read-outs that look alike come from different tables or passages of the source.

Legend:
[1] = 18F-NaF micro-PET/CT uptake on calcified human aortic valves ex vivo; type: binding
Description: (§1) To investigate (OEG2)2-IP4 interaction with calcified tissues in a clinically relevant context, a competitive binding assay using ^18F-NaF was applied on severely calcified human femoral arteries and native aortic valves ex vivo. […] First, ^18F-NaF uptake was measured on tissue samples treated with vehicle (human serum) and thereafter, using the same tissue samples, treated with (OEG2)2-IP4 in serum.
(§2) Triplicate aliquots of CPP2s (20 µg Ca/mL) in 100 μL assay buffer (100 mM HBS, pH 7.4 (RT)) were incubated for 1 h at RT in the presence of increasing concentrations of compounds in 50 μL Milli-Q water and ^18F-NaF (1 nM) in 50 μL assay buffer, resulting in a total incubation volume of 200 μL (^18F-NaF was prepared using a FASTlab synthesizer (GE Healthcare, Little Chalfont, UK) and commercially available ^18F-NaF cassettes (GE Healthcare)). Maximum radiotracer binding was determined by incubating CPP2s with ^18F-NaF (1 nM) only. The reaction was terminated by rapid filtration through a SOLAμ™ SPE plate (HRP 2 mg/mL 96-well plate, 22 μm; Thermo Fisher Scientific). SPE individual column matrices were washed twice rapidly in assay buffer and radioactivity on the filters determined by an automatic gamma counter (Wizard2 Gamma Counter, Perkin Elmer, Waltham, MA, USA). […]

[2] = 18F-NaF micro-PET/CT uptake on calcified human femoral arteries ex vivo; type: binding
Description: as §1, §2

[3] = biological target: T1, Peptidase, CTSG (Cathepsin G) (Homo sapiens, UniProt P08311); test: Off-target 112510; type: biochemical
T1 construct: purchased Eurofins Panlabs Discovery Services Taiwan, Ltd
Description: (§3) The potential off-target activity of 10 µM (OEG2)2-IP4 was assessed against a panel of 87 enzymes, receptors, or ion channels that are used in standard safety pharmacology screens.
(§4) 3.2. Off-target screening assay
(§5) The experiments were conducted by a contract research organization (Eurofins Panlabs Discovery Services Taiwan, Ltd.) and details on the respective assays can be retrieved via the catalog number provided in Supplementary Table 11 from the company’s webpage
(§6) (https://www.eurofinsdiscoveryservices.com/). […]
(§7) At sacrifice the left tibia of animals of the rat model with dietary adenine/high-phosphate-induced uremia and VC was collected, fixed with 70% v/v EtOH and embedded in methyl methacrylate. The trabecular bone compartment is known to be the most metabolic active i.e. actively re-structured bone compartment in CKD. Therefore, histomorphometric and micro-computed tomography (µCT) analysis of bone was performed on the trabecular compartment. Tibial sections were Goldner-stained for histomorphometric analysis of the proximal metaphysis using the AxioVision Release 4.5 software, as […]
(§8) described previously5. […]

Androgen (Testosterone) = test: Off-target 206000; type: binding, Human; conditions: 10 µM
Description: as §3, §4
(§9) The experiments were conducted by a contract research organization (Eurofins Panlabs Discovery
(§10) Services Taiwan, Ltd.) and details on the respective assays can be retrieved via the catalog number
(§11) provided in Supplementary Table 11 from the company’s webpage
as §6

[4] = tested on: Glutamate, NMDA, Polyamine; test: Off-target 234000; type: binding, Rat; conditions: 10 µM
Description: as §3, §4, §9, §10, §11, §6

[5] = Urinary excretion after s.c. administration; type: in vivo, rat; conditions: 10 mg/kg s.c.; for Cumulative recovery from rat urine / dose excreted: healthy rats; for dose excreted: rat, urine, subcutaneous, 10 mg/kg, read-out: Cumulative recovery from rat urine
Description: To study urinary excretion, six animals were administered s.c. 10 mg/kg of (OEG2)2-IP4 and two animals served as blank urine controls. Animals were placed in separated metabolic cages ([…] S.p.A. Buguggiate, Italy) right after dosing, left there for the entire experiment, and urine was collected after 2, 5, 8, and 24 h. At the end of the experiment, cages were washed with 10 mL water and the washes were collected in separated tubes. Urine samples were centrifuged at 3000 × g and 4 °C for 10 min and stored at −20 °C until quantification of (OEG2)2-IP4 by LC-MS/MS. Recovery (%) was calculated using Eq. (2).2 Recovery%=OEG22IP4μg/doseμg×ratweightkg×100.

[6] = biological target: T2, Serotonin (5-Hydroxytryptamine) 5-HT1A (Homo sapiens, UniProt P08908); test: Off-target 271110; type: binding
T2 construct: purchased Eurofins Panlabs Discovery Services Taiwan, Ltd
Description: as §3, §4, §9, §10, §11, §6

Transporter, GABA = biological target: T3, Transporter, GABA (Rattus norvegicus, UniProt P23978); test: Off-target 226400; type: binding
T3 construct: purchased Eurofins Panlabs Discovery Services Taiwan, Ltd
Description: as §3, §4, §5, §6, §7, §8

hERG potassium channel = biological target: T4, hERG potassium channel (Homo sapiens, UniProt Q12809); test: Off-target 265900; type: binding
T4 construct: purchased Eurofins Panlabs Discovery Services Taiwan, Ltd
Description: as §3, §4, §5, §6, §7, §8

Potassium Channel [KATP] = test: Off-target 265600; type: binding, Hamster; conditions: 10 µM
Description: as §3, §4, §9, §10, §11, §6

Angiotensin AT1 = biological target: T5, Angiotensin AT1 (Homo sapiens, UniProt P30556); test: Off-target 210030; type: binding
T5 construct: purchased Eurofins Panlabs Discovery Services Taiwan, Ltd
Description: as §3, §4, §5, §6, §7, §8

[7] = biological target: T6, Protein Tyrosine Kinase, LCK (Homo sapiens, UniProt P06239); test: Off-target 176020; type: biochemical
T6 construct: purchased Eurofins Panlabs Discovery Services Taiwan, Ltd
Description: as §3, §4, §9, §10, §11, §6

Estrogen ERα = biological target: T7, Estrogen ERα (Homo sapiens, UniProt P03372); test: Off-target 226010; type: binding
T7 construct: purchased Eurofins Panlabs Discovery Services Taiwan, Ltd
Description: as §3, §4, §5, §6, §7, §8

Tachykinin NK1 = biological target: T8, Tachykinin NK1 (Homo sapiens, UniProt P25103); test: Off-target 255520; type: binding
T8 construct: purchased Eurofins Panlabs Discovery Services Taiwan, Ltd
Description: as §3, §4, §5, §6, §7, §8

GABAB1A = biological target: T9, GABAB1A (Homo sapiens, UniProt Q9UBS5); test: Off-target 228610; type: binding
T9 construct: purchased Eurofins Panlabs Discovery Services Taiwan, Ltd
Description: as §3, §4, §9, §10, §11, §6

[8] = design: method as in PMID 30280390; conditions: after a 4-h i.v. infusion, cited from earlier work
[9] = uremic rats, 4 h i.v. infusion of 50 mg/kg; cited from earlier work

T6 sequence (P06239 whole entry): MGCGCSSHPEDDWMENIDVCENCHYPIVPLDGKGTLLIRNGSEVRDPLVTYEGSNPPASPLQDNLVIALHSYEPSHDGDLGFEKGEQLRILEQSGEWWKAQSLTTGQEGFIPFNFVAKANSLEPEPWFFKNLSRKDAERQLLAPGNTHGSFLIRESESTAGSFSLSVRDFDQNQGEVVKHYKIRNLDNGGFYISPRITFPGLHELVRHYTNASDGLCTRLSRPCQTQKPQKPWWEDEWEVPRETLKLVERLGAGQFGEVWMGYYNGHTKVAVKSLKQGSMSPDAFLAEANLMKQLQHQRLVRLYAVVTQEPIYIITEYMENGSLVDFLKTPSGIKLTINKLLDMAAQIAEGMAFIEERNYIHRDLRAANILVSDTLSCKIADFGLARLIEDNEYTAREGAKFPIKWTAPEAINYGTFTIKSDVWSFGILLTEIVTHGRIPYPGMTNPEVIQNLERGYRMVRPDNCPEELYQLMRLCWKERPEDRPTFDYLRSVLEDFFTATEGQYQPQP
T2 sequence (P08908 whole entry): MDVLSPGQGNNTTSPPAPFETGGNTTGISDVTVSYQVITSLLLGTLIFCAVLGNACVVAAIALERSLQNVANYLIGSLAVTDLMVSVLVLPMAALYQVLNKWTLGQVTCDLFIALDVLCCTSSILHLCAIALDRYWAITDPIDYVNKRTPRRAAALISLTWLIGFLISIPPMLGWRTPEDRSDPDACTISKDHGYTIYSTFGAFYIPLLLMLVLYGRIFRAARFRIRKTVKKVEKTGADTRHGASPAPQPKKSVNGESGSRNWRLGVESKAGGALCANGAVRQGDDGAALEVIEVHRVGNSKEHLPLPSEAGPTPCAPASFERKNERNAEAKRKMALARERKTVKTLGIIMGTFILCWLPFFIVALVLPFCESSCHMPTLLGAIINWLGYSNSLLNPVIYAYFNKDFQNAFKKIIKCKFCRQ
T1 sequence (P08311 21-255): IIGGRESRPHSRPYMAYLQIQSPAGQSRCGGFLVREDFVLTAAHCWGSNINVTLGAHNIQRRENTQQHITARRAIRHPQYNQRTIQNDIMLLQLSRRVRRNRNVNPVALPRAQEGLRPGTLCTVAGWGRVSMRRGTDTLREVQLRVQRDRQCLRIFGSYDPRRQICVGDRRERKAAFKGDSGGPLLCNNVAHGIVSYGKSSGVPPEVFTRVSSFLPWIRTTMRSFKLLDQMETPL
T5 sequence (P30556 whole entry): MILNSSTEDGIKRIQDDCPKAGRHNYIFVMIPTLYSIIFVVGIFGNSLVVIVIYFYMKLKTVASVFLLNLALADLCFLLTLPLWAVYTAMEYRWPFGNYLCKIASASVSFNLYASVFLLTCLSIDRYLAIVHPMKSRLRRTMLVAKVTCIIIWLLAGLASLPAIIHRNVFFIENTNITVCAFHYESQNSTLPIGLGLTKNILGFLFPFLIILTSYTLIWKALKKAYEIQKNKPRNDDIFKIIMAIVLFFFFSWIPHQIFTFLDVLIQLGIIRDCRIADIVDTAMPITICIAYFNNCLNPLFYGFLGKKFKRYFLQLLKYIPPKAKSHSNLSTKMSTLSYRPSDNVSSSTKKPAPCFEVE
T7 sequence (P03372 whole entry): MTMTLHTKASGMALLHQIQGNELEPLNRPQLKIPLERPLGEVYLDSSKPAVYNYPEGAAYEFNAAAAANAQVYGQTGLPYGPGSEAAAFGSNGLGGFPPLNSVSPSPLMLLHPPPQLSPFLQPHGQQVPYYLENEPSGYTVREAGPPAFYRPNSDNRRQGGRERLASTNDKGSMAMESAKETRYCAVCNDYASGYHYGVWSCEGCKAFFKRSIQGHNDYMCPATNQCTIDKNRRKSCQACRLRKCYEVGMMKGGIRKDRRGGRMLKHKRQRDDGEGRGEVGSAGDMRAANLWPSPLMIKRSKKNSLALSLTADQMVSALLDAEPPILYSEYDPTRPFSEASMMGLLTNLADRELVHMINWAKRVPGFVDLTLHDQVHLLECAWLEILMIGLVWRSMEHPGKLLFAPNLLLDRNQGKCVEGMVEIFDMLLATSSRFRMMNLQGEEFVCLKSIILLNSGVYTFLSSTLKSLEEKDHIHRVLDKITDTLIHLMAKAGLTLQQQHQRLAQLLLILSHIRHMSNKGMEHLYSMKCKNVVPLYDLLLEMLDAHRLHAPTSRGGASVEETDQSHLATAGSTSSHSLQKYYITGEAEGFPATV
T4 sequence (Q12809 whole entry): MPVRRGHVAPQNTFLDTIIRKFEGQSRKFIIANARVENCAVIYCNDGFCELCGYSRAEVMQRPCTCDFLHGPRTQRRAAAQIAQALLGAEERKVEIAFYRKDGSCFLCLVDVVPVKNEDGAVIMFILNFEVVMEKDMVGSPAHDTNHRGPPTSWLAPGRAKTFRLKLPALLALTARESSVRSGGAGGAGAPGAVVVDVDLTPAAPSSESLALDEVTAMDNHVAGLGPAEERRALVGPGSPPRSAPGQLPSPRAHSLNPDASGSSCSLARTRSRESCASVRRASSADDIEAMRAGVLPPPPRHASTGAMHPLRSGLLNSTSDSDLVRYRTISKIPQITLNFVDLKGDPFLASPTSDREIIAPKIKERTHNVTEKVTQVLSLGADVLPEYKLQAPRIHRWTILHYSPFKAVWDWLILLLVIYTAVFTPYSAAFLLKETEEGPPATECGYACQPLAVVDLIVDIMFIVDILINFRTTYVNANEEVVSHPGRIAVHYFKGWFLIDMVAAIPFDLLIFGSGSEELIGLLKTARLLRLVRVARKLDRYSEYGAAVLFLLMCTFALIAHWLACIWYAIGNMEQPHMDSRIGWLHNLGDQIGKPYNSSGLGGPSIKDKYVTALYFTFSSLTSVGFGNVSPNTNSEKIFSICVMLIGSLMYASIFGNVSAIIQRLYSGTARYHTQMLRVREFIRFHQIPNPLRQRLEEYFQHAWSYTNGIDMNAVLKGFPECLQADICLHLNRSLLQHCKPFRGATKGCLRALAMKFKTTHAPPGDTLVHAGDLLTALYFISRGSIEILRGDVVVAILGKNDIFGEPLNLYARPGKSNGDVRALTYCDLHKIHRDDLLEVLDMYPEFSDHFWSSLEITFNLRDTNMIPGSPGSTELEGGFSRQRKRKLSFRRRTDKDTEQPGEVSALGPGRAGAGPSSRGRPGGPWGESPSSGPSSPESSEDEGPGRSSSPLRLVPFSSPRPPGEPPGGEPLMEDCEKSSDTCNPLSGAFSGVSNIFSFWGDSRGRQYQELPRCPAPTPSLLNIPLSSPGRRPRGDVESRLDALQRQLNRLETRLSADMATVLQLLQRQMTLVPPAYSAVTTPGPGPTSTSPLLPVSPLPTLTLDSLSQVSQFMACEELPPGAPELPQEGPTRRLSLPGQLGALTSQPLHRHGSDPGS
T8 sequence (P25103 whole entry): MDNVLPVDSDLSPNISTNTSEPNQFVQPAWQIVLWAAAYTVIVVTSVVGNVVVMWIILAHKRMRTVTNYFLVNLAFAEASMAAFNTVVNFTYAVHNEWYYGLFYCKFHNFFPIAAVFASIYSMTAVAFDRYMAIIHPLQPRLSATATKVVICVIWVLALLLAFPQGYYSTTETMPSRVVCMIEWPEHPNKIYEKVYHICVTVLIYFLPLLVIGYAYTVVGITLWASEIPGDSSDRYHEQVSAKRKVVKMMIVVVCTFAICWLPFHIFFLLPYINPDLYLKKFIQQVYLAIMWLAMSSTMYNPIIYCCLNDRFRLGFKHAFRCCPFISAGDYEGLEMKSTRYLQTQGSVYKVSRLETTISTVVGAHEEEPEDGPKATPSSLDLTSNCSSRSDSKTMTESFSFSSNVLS

Structure (SMILES): COCCOCCO[C@@H]1[C@@H](OP(=O)(O)O)[C@H](OCCOCCOC)[C@@H](OP(=O)(O)O)[C@@H](OP(=O)(O)O)[C@H]1OP(=O)(O)O [(OEG2)2-IP4, 4,6-Di-O-(methoxy-diethyleneglycol)-myo-inositol-1,2,3,5-tetrakis(phosphate)]
- change of 18F-NaF uptake vs vehicle ([1]; 8.6 μM in human serum): −33%
- maximum average 18F binding (18F-NaF-PET) ([1]; IC90 concentration in human serum, individual samples Fig. 3k, unit not given): 547.591 and 685.802 and 706.308
- change of 18F-NaF uptake vs vehicle ([2]; 8.6 μM in human serum): −38%
- maximum average 18F binding (18F-NaF-PET) ([2]; IC90 concentration in human serum, individual samples Fig. 3j, unit not given): 319.764 and 464.582 and 653.422 and 447.312 and 563.189 and 486.153 and 450.235
- inhibition at 10 µM [3]: 23%
- % Inhibition (Androgen (Testosterone)): 12%
- % Inhibition [4]: 17%
- intact dose recovered in the urine of healthy rats [5]: Forty percent
- Cumulative recovery from rat urine ([5]; 2 h, individual rats Fig. 4j): 21.7% and 21.3% and 24.6% and 20.5%
- Cumulative recovery from rat urine ([5]; 8 h): 49% and 34.7% and 40.7% and 37.3% and 32.9%
- Cumulative recovery from rat urine ([5]; 24 h): 52.9% and 39.5% and 42.5% and 38.2% and 34.7%
- dose excreted ([5]; 2 h, individual rats Fig. 4j): 26.7%
- dose excreted ([5]; 8 h): 29.8%
- dose excreted ([5]; 24 h): 34.4%
- inhibition at 10 µM [6]: 11%
- inhibition at 10 µM (Transporter, GABA): 4%
- inhibition at 10 µM (hERG potassium channel): 11%
- % Inhibition (Potassium Channel [KATP]): 14%
- inhibition at 10 µM (Angiotensin AT1): 0%
- inhibition at 10 µM [7]: 4%
- inhibition at 10 µM (Estrogen ERα): -1%
- inhibition at 10 µM (Tachykinin NK1): -14%
- inhibition at 10 µM (GABAB1A): -7%

Structure (SMILES): O=P(O)(O)O[C@H]1[C@H](OP(=O)(O)O)[C@@H](OP(=O)(O)O)[C@H](OP(=O)(O)O)[C@@H](OP(=O)(O)O)[C@H]1OP(=O)(O)O [IP6, myo-Inositol hexakisphosphate]
- plasma half-life (t1/2) ([8]; healthy volunteers): 54 min
- plasma half-life (t1/2) ([8]; hemodialyzed patients): 27 min
- reduction in serum calcium levels [9]: 17%
